Values quoted from earlier work, collected in US20260207657A1, “ANTISEPTIC COMPOSITIONS AND METHODS” (Solventum Intellectual Properties Company, priority 2022, published 2026).

Settings: 25° C.

II [molecular iodine]
Solubility in water: 0.03 wt-%
